According to paper PMC6576746, “Rational discovery of dual-indication multi-target PDE/Kinase inhibitor for precision anti-cancer therapy using structural systems pharmacology” (PLoS Computational Biology, 2019):

What was measured:
Assay in all cases: biochemical
Parameters in all cases: DiscoverX KinomeScan competition binding assay across human kinases; per cent of control at 10 and 100 uM
[1] = molecular target: AKT3 (Homo sapiens, UniProt Q9Y243); conditions: competition binding, % of control
Chain of AKT3 (Q9Y243 whole entry): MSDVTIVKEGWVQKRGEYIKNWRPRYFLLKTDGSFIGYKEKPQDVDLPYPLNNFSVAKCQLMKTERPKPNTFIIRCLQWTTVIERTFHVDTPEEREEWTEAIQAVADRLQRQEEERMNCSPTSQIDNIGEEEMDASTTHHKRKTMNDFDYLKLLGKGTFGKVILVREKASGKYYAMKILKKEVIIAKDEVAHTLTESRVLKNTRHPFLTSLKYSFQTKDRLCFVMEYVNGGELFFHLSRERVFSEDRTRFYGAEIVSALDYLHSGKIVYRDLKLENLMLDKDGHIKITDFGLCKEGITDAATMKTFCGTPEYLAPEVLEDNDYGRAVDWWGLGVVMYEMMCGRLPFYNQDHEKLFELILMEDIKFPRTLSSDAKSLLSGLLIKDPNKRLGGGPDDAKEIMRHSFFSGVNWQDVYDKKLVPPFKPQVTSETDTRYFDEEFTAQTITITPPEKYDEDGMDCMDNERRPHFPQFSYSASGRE
Method in brief: (§1)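 Binding is expressed as %control, normalised between positive and negative control signals. The compound (levosimendan) was tested at 10 μM and 100 μM in the DiscoverX KinomeScan competition binding format against human kinases.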

[2] = molecular target: BLK (Homo sapiens, UniProt P51451); conditions: competition binding, % of control
Chain of BLK (P51451 whole entry): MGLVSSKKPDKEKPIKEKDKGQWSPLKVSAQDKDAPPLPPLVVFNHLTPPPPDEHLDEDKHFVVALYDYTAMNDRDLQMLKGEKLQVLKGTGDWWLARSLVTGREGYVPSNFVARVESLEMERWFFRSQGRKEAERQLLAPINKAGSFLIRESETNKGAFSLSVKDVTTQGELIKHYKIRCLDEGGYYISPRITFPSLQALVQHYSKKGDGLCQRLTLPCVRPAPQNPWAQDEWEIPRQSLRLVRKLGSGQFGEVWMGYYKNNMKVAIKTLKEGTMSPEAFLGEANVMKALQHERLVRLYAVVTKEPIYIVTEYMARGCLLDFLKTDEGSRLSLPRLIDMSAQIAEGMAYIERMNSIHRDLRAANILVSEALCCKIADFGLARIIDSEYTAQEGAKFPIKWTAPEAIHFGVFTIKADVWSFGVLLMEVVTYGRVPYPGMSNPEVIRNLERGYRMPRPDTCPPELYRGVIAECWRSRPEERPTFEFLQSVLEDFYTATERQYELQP
Method in brief: as §1

[3] = molecular target: T1, CDK4-cyclinD3 (Homo sapiens, UniProt P11802); conditions: competition binding, % of control; read-out: Percent Control (100 uM Levosimendan)
T1 construct: cyclinD3
Method in brief: as §1

[4] = molecular target: DYRK1A (Homo sapiens, UniProt Q13627); conditions: competition binding, % of control; read-out: Percent Control (100 uM Levosimendan)
Method in brief: as §1

[5] = molecular target: ERBB3 (Homo sapiens, UniProt P21860); conditions: competition binding, % of control; read-out: Percent Control (100 uM Levosimendan)
Method in brief: as §1

[6] = molecular target: INSRR (Homo sapiens, UniProt P14616); conditions: competition binding, % of control; read-out: Percent Control (100 uM Levosimendan)
Method in brief: as §1

[7] = molecular target: T2, JAK3(JH1domain-catalytic) (Homo sapiens, UniProt P52333); conditions: competition binding, % of control; read-out: Percent Control (100 uM Levosimendan)
T2 construct: JH1domain-catalytic
Method in brief: as §1

[8] = molecular target: LCK (Homo sapiens, UniProt P06239); conditions: competition binding, % of control
Chain of LCK (P06239 whole entry): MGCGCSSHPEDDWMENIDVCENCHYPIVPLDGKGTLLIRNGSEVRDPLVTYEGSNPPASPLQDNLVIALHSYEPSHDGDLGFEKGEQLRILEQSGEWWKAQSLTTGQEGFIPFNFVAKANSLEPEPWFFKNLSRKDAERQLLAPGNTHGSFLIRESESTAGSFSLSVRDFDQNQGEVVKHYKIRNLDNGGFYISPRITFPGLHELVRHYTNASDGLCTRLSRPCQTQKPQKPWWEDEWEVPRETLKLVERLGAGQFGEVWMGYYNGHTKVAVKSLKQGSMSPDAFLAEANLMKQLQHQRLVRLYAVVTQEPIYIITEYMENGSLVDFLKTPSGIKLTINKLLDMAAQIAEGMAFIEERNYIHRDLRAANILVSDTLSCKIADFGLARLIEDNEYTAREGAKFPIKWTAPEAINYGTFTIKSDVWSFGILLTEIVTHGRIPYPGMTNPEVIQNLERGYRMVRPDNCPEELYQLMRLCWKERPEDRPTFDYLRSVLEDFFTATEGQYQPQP
Method in brief: as §1

[9] = molecular target: LTK (Homo sapiens, UniProt P29376); conditions: competition binding, % of control; read-out: Percent Control (100 uM Levosimendan)
Method in brief: as §1

[10] = molecular target: T3, MEK6 (Homo sapiens, UniProt P52564); conditions: competition binding, % of control; read-out: Percent Control (100 uM Levosimendan)
T3 construct: gene MAP2K6
Method in brief: as §1

[11] = molecular target: PHKG1 (Homo sapiens, UniProt Q16816); conditions: competition binding, % of control; read-out: Percent Control (100 uM Levosimendan)
Method in brief: as §1

[12] = molecular target: PIP5K1A (Homo sapiens, UniProt Q99755); conditions: competition binding, % of control
Chain of PIP5K1A (Q99755 whole entry): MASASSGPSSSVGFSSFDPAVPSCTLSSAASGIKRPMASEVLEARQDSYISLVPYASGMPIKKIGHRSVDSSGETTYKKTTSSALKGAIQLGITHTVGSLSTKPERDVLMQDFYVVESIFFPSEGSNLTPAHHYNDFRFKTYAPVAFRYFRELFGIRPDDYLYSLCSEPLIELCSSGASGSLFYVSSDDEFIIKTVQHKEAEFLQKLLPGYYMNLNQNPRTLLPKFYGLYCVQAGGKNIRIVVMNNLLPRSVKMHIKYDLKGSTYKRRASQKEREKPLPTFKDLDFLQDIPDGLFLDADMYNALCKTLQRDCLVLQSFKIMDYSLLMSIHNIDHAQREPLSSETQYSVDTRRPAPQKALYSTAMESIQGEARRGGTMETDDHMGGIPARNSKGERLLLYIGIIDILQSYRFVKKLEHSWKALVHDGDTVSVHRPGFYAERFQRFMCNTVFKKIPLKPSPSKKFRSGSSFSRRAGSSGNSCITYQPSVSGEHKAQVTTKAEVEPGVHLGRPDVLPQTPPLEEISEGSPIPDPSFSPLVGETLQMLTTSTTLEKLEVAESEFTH
Method in brief: as §1

[13] = molecular target: T4, PKAC-beta (Homo sapiens, UniProt P22694); conditions: competition binding, % of control; read-out: Percent Control (100 uM Levosimendan)
T4 construct: gene PRKACB
Method in brief: as §1

[14] = molecular target: PKN2 (Homo sapiens, UniProt Q16513); conditions: competition binding, % of control
Chain of PKN2 (Q16513 whole entry): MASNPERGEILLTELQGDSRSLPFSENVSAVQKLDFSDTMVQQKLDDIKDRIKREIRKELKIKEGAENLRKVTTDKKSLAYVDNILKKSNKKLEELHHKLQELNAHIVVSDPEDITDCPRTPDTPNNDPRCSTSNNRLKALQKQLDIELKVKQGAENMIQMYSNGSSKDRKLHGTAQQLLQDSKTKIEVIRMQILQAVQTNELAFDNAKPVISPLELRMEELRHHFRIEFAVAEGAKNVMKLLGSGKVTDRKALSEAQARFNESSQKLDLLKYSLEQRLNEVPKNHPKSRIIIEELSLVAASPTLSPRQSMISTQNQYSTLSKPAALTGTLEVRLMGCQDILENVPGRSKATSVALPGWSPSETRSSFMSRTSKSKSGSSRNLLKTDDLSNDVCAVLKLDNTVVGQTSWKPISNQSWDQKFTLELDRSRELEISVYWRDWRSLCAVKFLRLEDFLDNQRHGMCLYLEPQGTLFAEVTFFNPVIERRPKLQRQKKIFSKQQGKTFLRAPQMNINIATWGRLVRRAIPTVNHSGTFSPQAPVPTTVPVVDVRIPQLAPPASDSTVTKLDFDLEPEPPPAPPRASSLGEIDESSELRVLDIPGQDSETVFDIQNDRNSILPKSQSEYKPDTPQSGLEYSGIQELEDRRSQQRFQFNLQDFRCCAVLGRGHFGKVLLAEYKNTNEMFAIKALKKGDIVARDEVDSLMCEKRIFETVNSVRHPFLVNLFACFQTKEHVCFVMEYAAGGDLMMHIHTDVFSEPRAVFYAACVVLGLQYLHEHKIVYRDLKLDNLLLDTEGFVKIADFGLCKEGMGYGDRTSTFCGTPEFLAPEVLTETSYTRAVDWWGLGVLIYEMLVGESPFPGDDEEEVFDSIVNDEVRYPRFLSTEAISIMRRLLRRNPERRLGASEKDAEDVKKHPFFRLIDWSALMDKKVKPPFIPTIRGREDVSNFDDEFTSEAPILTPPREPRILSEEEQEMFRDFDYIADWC
Method in brief: as §1

[15] = molecular target: T5, RSK3(Kin.Dom.2-C-terminal) (Homo sapiens, UniProt Q15349); conditions: competition binding, % of control; read-out: Percent Control (100 uM Levosimendan)
T5 construct: gene RPS6KA2; Kin.Dom.2-C-terminal
Method in brief: as §1

[16] = molecular target: SGK3 (Homo sapiens, UniProt Q96BR1); conditions: competition binding, % of control; read-out: Percent Control (100 uM Levosimendan)
Chain of SGK3 (Q96BR1 whole entry): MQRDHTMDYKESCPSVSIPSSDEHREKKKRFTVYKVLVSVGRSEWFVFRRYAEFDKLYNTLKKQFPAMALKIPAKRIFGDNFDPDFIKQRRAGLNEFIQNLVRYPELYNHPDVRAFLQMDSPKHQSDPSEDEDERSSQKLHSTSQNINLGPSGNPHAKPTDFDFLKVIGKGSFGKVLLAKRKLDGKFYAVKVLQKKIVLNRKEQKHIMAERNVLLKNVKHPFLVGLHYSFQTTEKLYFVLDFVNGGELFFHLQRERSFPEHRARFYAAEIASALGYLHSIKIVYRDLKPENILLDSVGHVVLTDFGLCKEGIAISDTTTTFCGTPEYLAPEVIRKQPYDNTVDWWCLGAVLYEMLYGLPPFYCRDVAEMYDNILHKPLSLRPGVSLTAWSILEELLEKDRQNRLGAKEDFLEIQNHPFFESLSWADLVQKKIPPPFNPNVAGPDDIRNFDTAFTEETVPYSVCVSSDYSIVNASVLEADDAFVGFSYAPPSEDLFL
Method in brief: as §1

[17] = molecular target: STK36 (Homo sapiens, UniProt Q9NRP7); conditions: competition binding, % of control
Chain of STK36 (Q9NRP7 whole entry): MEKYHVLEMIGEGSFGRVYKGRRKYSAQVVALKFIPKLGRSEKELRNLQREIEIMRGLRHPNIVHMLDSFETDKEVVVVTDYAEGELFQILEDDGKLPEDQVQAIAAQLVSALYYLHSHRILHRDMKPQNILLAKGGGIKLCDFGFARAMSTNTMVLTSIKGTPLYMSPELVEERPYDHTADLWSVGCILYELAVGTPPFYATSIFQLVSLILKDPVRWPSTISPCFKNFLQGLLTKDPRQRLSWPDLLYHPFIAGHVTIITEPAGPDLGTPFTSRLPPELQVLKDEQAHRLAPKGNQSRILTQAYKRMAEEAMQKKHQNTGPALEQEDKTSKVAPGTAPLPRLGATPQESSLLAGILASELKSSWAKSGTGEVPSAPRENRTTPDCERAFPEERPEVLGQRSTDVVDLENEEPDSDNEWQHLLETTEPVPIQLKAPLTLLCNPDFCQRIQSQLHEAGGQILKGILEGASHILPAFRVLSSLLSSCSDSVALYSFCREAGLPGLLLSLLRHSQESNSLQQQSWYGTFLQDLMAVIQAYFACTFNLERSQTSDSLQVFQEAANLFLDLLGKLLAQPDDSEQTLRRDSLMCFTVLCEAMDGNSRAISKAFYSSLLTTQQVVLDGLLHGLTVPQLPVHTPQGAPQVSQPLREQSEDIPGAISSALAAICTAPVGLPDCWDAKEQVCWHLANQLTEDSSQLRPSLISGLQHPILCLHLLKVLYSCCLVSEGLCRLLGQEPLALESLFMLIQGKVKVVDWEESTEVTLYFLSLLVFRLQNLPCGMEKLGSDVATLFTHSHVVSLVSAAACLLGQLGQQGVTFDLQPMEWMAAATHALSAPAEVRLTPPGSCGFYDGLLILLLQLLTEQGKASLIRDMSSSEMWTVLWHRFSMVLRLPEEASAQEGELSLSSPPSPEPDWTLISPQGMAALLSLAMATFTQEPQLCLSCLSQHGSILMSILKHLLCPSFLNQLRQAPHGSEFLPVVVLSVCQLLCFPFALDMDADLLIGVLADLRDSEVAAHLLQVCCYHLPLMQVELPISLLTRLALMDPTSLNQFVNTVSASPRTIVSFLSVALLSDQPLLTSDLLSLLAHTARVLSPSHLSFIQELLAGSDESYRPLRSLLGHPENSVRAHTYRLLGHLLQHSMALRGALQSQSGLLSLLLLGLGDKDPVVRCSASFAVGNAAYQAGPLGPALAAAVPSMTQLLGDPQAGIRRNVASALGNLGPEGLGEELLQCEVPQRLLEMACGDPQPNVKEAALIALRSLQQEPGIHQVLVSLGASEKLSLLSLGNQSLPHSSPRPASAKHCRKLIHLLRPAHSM
Method in brief: as §1

[18] = molecular target: T6, p38-delta (Homo sapiens, UniProt O15264); conditions: competition binding, % of control; read-out: Percent Control (100 uM Levosimendan)
T6 construct: gene MAPK13
Method in brief: as §1

[19] = read-out: Percent Control (10 uM Levosimendan)
[20] = read-out: Percent Control (100 uM Levosimendan)

remaining binding at 10 µM [1, 19]: 96%
remaining binding at 100 µM [1, 20]: 37%
remaining binding at 10 µM [2, 19]: 79%
remaining binding at 100 µM [2, 20]: 50%
remaining binding at 100 µM [3]: 100%
remaining binding at 100 µM [4]: 89%
remaining binding at 100 µM [5]: 75%
remaining binding at 100 µM [6]: 96%
remaining binding at 100 µM [7]: 75%
remaining binding at 10 µM [8, 19]: 89%
remaining binding at 100 µM [8, 20]: 46%
remaining binding at 100 µM [9]: 96%
remaining binding at 100 µM [10]: 100%
remaining binding at 100 µM [11]: 89%
remaining binding at 10 µM [12, 19]: 22%
remaining binding at 100 µM [12, 20]: 6.2%
remaining binding at 100 µM [13]: 64%
remaining binding at 10 µM [14, 19]: 94%
remaining binding at 100 µM [14, 20]: 49%
remaining binding at 100 µM [15]: 100%
remaining binding at 100 µM [16]: 92%
remaining binding at 10 µM [17, 19]: 98%
remaining binding at 100 µM [17, 20]: 50%
remaining binding at 100 µM [18]: 100%
Structure (SMILES): C[C@@H]1CC(=O)NN=C1c1ccc(NN=C(C#N)C#N)cc1 [levosimendan]
